Patent US20250326771A1, “PIPERAZINE DERIVATIVES USEFUL IN HIV THERAPY” (VIIV HEALTHCARE COMPANY, priority 2022, published 2025)
Like-named read-outs stand apart in the source and are kept apart here.

Legend:
[1] = system: Jurkat HIV-luciferase clones; experiment: Jurkat latency reversal assay; format: cell-based; settings: Homo sapiens, 48 h; Jurkat latency reversal assay potency; read-out: Jurkat pEC50 (converted)
In short: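 A 1:1:1 mix of three Jurkat clones (C16, 115, N6) carrying integrated luciferase-expressing HIV proviruses, 5,000 cells/well, was exposed to 3-fold, 14-point compound titrations from 10 μM at 0.5% DMSO for 48 h at 37° C. Steady-Glo luminescence was fitted by four-parameter logistic regression to give EC50 and maximal percent activation relative to vehicle.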

cIAP1-BIR3 = cIAP1-BIR3 (Homo sapiens (Human), UniProt Q13490); experiment: BIR binding assay (FRET competition), cIAP1 BIR3; settings: for cIAP1 BIR3 vs BIR2 separation window: fold separation (FS) for cIAP1
In short: (§1)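 615/665 nm FRET ratio. Compound, His-domain and 200 nM AF647-SMAC peptide incubated 60 min, then 2 nM Eu-W1024 for 30 min. Domains: cIAP1-BIR3 50 nM; XIAP-BIR3 100 nM; cIAP1-BIR2, cIAP2-BIR2 325 nM each. 15-pt 3-fold series; variable-slope IC50.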

cIAP1-BIR2 = cIAP1-BIR2 (Homo sapiens (Human), UniProt Q13490); experiment: BIR binding assay (FRET competition), cIAP1 BIR2
In short: as §1

cIAP2-BIR3 = cIAP2-BIR3 (Homo sapiens (Human), UniProt Q13489); experiment: BIR binding assay (FRET competition), cIAP2 BIR3; settings: for cIAP2 BIR3 vs BIR2 separation window: fold separation (FS) for cIAP2
cIAP2-BIR2 = cIAP2-BIR2 (Homo sapiens (Human), UniProt Q13489); experiment: BIR binding assay (FRET competition), cIAP2 BIR2
In short: as §1

XIAP-BIR3 = XIAP-BIR3 (Homo sapiens (Human), UniProt P98170); experiment: BIR binding assay (FRET competition), XIAP BIR3; settings: for XIAP BIR3 vs BIR2 separation window: fold separation (FS) for XIAP
In short: as §1

XIAP-BIR2 = XIAP-BIR2 (Homo sapiens (Human), UniProt P98170); experiment: BIR binding assay (FRET competition), XIAP BIR2
In short: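 Competitive TR-FRET used His-tagged XIAP-BIR2 (200 nM) and 200 nM AlexaFluor647-labelled AVPIAQKSE SMAC peptide in HEPES buffer pH 7.4 with CHAPS, glycerol and DTT, incubated 60 min before 30 min with 2 nM Eu-W1024. The 615/665 nm ratio from a 15-point, 3-fold series was fit with a four-parameter model for IC50/pIC50.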

[2] = FRET competition binding, read-out: XIAP BIR2 (pIC50) (converted)
[3] = FRET competition, read-out: XIAP BIR2 (pIC50) (converted)

Chain of cIAP1-BIR3 (Q13490 253-363): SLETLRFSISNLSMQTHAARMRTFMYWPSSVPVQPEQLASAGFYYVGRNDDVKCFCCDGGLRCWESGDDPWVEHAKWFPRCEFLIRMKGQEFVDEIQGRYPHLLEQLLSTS
Chain of cIAP2-BIR2 (Q13489 158-242): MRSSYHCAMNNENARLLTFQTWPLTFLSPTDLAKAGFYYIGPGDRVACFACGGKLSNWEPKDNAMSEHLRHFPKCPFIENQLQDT
Chain of cIAP1-BIR2 (Q13490 173-257): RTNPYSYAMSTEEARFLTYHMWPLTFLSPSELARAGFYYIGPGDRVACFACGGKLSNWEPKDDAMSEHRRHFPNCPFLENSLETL
Chain of XIAP-BIR2 (P98170 124-240): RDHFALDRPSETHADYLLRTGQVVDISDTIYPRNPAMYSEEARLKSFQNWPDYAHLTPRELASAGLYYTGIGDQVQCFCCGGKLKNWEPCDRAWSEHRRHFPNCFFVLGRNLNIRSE
Chain of cIAP2-BIR3 (Q13489 238-349): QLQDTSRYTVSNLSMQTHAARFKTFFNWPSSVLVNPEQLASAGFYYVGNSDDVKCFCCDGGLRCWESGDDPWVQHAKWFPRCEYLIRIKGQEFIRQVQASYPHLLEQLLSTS
Chain of XIAP-BIR3 (P98170 241-356): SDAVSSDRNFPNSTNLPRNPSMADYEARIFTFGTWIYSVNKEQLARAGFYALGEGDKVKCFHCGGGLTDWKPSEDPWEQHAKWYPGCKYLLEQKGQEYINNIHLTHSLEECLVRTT

Row | SMILES | EC50 [1] [nM] | IC50 (cIAP1-BIR3) [nM] | cIAP1 BIR3 vs BIR2 separation window (cIAP1-BIR3) | IC50 (cIAP1-BIR2) [nM] | IC50 (cIAP2-BIR3) [nM] | cIAP2 BIR3 vs BIR2 separation window (cIAP2-BIR3) | IC50 (cIAP2-BIR2) [nM] | IC50 (XIAP-BIR3) [nM] | XIAP BIR3 vs BIR2 separation window (XIAP-BIR3) | IC50 (XIAP-BIR2; [2]) [nM] | IC50 (XIAP-BIR2; [3]) [nM] | IC50 (XIAP-BIR2) [nM]
1 | C[C@@H]1CN(CC(=O)N2CC(C)(C)c3[nH]c(=O)c(Cc4ccc(F)cc4)cc32)[C@@H](CN2CCO[C@H](COc3ccc(OC[C@@H]4CN(C[C@H]5CN[C@H](C)CN5CC(=O)N5CC(C)(C)c6[nH]c(=O)c(Cc7ccc(F)cc7)cc65)CCO4)cc3)C2)CN1 [Example 70, 1,1′-(2,2′-((3R,3′R,6R,6′R)-(((2S,2'S)-((1,4-phenylenebis(oxy))bis(methylene))bis(morpholine-2,4-diyl))bis(methylene))bis(3-methylpiperazine-6,1-diyl))bis(acetyl))bis(6-(4-fluorobenzyl)-3,3-dimethyl-1,2,3,4-tetrahydro-5H-pyrrolo[3,2-b]pyridin-5-one)] | 0.49 to 12.6 | 15.8 to 31.6 | +++ (10,000>FS>1,000) | 1000 to 3160 | 7.94 to 15.8 | +++ (10,000>FS>1,000) | 1000 to 3160 | 15.8 to 31.6 | ++++ (FS>10,000) | 10000 to 51300 |  | 
2 | C[C@@H]1CN(CC(=O)N2CC(C)(C)c3ncc(N(C)c4ccc(F)cc4)cc32)[C@@H](CN2CCO[C@H](COc3cccc(OC[C@@H]4CN(C[C@H]5CN[C@H](C)CN5CC(=O)N5CC(C)(C)c6ncc(N(C)c7ccc(F)cc7)cc65)CCO4)c3)C2)CN1 [Compound 144] | 316 to 3310 | 31.6 to 501 | +++ (10,000>FS>1,000) | 10000 to 51300 | 31.6 to 501 | +++ (10,000>FS>1,000) | 10000 to 51300 | 31.6 to 501 | +++ (10,000>FS>1,000) |  | 10000 to 51300 | 
3 | C[C@@H]1CN(CC(=O)N2CC(C)(C)c3[nH]c(=O)c(Cc4ccc(F)cc4)cc32)[C@@H](CN2CCC(CC(=O)N(C)Cc3ccc(CN(C)C(=O)CC4CCN(C[C@H]5CN[C@H](C)CN5CC(=O)N5CC(C)(C)c6[nH]c(=O)c(Cc7ccc(F)cc7)cc65)CC4)cc3)CC2)CN1 [Example 106, N,N′-(1,4-phenylenebis(methylene))bis(2-(1-(((2R,5R)-1-(2-(6-(4-fluorobenzyl)-3,3-dimethyl-5-oxo-2,3,4,5-tetrahydro-1H-pyrrolo[3,2-b]pyridin-1-yl)-2-oxoethyl)-5-methylpiperazin-2-yl)methyl)piperidin-4-yl)-N-methylacetamide)] | 12.6 to 63.1 | 1.38 to 7.94 | +++ (10,000>FS>1,000) | 1000 to 3160 | 1.38 to 7.94 | +++ (10,000>FS>1,000) | 1000 to 3160 | 1.38 to 7.94 | ++++ (FS>10,000) | 10000 to 51300 |  | 
4 | C[C@@H]1CN(CC(=O)N2CC(C)(C)c3[nH]c(=O)c(Cc4ccc(F)cc4)cc32)[C@@H](CN2CCO[C@H](COc3ccc(C#N)c(OC[C@@H]4CN(C[C@H]5CN[C@H](C)CN5CC(=O)N5CC(C)(C)c6[nH]c(=O)c(Cc7ccc(F)cc7)cc65)CCO4)c3)C2)CN1 [Example 77, 2,4-bis(((S)-4-(((2R,5R)-1-(2-(6-(4-fluorobenzyl)-3,3-dimethyl-5-oxo-2,3,4,5-tetrahydro-1H-pyrrolo[3,2-b]pyridin-1-yl)-2-oxoethyl)-5-methylpiperazin-2-yl)methyl)morpholin-2-yl)methoxy)benzonitrile] | 12.6 to 63.1 | 1.38 to 7.94 | +++ (10,000>FS>1,000) | 1000 to 3160 | 1.38 to 7.94 | +++ (10,000>FS>1,000) | 1000 to 3160 | 15.8 to 31.6 | ++++ (FS>10,000) | 10000 to 51300 |  | 
5 | C[C@@H]1CN(CC(=O)N2CC(C)(C)c3ncc(Cc4cccnc4)cc32)[C@@H](CN2CCO[C@H](COc3cccc(OC[C@@H]4CN(C[C@H]5CN[C@H](C)CN5CC(=O)N5CC(C)(C)c6ncc(Cc7cccnc7)cc65)CCO4)c3)C2)CN1 [Compound 146] | 316 to 3310 | 1.38 to 7.94 | ++++ (FS>10,000) | 10000 to 51300 | 1.38 to 7.94 | ++++ (FS>10,000) | 10000 to 51300 | 31.6 to 501 | ++++ (FS>10,000) |  |  | 10000 to 51300
6 | C[C@@H]1CN(CC(=O)N2CC(C)(C)c3[nH]c(=O)c(Cc4ccc(F)cc4)cc32)[C@@H](CN2CCO[C@H](C(=O)N[C@H]3CC[C@H](NC(=O)[C@@H]4CN(C[C@H]5CN[C@H](C)CN5CC(=O)N5CC(C)(C)c6[nH]c(=O)c(Cc7ccc(F)cc7)cc65)CCO4)CC3)C2)CN1 [Example 92, (2S,2'S)-N,N′-((1S,4S)-cyclohexane-1,4-diyl)bis(4-(((2R,5R)-1-(2-(6-(4-fluorobenzyl)-3,3-dimethyl-5-oxo-2,3,4,5-tetrahydro-1H-pyrrolo[3,2-b]pyridin-1-yl)-2-oxoethyl)-5-methylpiperazin-2-yl)methyl)morpholine-2-carboxamide)] | 12.6 to 63.1 | 1.38 to 7.94 | +++ (10,000>FS>1,000) | 1000 to 3160 | 7.94 to 15.8 | +++ (10,000>FS>1,000) | 1000 to 3160 | 7.94 to 15.8 | ++++ (FS>10,000) | 10000 to 51300 |  | 
7 | C[C@@H]1CN(CC(=O)N2CC(C)(C)c3[nH]c(=O)c(Cc4ccc(F)cc4)cc32)[C@@H](CN2CCO[C@H](C(=O)NCCCCNC(=O)[C@@H]3CN(C[C@H]4CN[C@H](C)CN4CC(=O)N4CC(C)(C)c5[nH]c(=O)c(Cc6ccc(F)cc6)cc54)CCO3)C2)CN1 [Example 126, (2S,2'S)-N,N′-(butane-1,4-diyl)bis(4-(((2R,5R)-1-(2-(6-(4-fluorobenzyl)-3,3-dimethyl-5-oxo-2,3,4,5-tetrahydro-1H-pyrrolo[3,2-b]pyridin-1-yl)-2-oxoethyl)-5-methylpiperazin-2-yl)methyl)morpholine-2-carboxamide)] | 63.1 to 316 | 7.94 to 15.8 | +++ (10,000>FS>1,000) | 1000 to 3160 | 7.94 to 15.8 | +++ (10,000>FS>1,000) | 1000 to 3160 | 7.94 to 15.8 | ++++ (FS>10,000) | 10000 to 51300 |  | 
8 | C[C@@H]1CN(CC(=O)N2CC(C)(C)c3[nH]c(=O)c(Cc4ccc(F)cc4)cc32)[C@@H](CN2CCN(C(=O)Cc3ccccc3CC(=O)N3CCN(C[C@H]4CN[C@H](C)CN4CC(=O)N4CC(C)(C)c5[nH]c(=O)c(Cc6ccc(F)cc6)cc54)[C@H](C)C3)C[C@H]2C)CN1 [Example 7, 1,1′-(2,2′-((3R,3′R,6R,6′R)-(((2R,2′R)-(2,2′-(1,2-phenylene)bis(acetyl))bis(2-methylpiperazine-4,1-diyl))bis(methylene))bis(3-methylpiperazine-6,1-diyl))bis(acetyl))bis(6-(4-fluorobenzyl)-3,3-dimethyl-1,2,3,4-tetrahydro-5H-pyrrolo[3,2-b]pyridin-5-one)] | 63.1 to 316 | 15.8 to 31.6 |  | 22.4 to 1000 | 15.8 to 31.6 |  | 22.4 to 1000 | 15.8 to 31.6 |  | 1000 to 3160 |  | 
9 | C[C@@H]1CN(CC(=O)N2CC(C)(C)c3[nH]c(=O)c(Cc4cc(F)c(F)cc4F)cc32)[C@@H](CN2CCO[C@H](C(=O)NCc3ccc(CNC(=O)[C@@H]4CN(C[C@H]5CN[C@H](C)CN5CC(=O)N5CC(C)(C)c6[nH]c(=O)c(Cc7cc(F)c(F)cc7F)cc65)CCO4)cc3)C2)CN1 [Compound 175, (2S,2′S)-N,N′-(1,4-phenylenebis(methylene)) bis(4-(((2R,5R)-1-(2-(3,3-dimethyl-5-oxo-6-(2,4,5-trifluorobenzyl)-2,3,4,5-tetrahydro-1H-pyrrolo[3,2-b]pyridin-1-yl)-2-oxoethyl)-5-methylpiperazin-2-yl)methyl)morpholine-2-carboxamide)] | 0.49 to 12.6 | 15.8 to 31.6 | +++ (10,000>FS>1,000) | 1000 to 3160 | 7.94 to 15.8 | +++ (10,000>FS>1,000) | 3160 to 10000 | 15.8 to 31.6 | ++++ (FS>10,000) |  | 10000 to 51300 | 
